In a melting point compilation (Tetko et al.; mined from patent text by program, amines drawn as free bases though some values may be those of a salt):

SMILES | melting point [°C]
CNC(=O)C(NC(=O)c1cn(C)nc1C(F)(F)F)C(COC(C)=O)c1ccccc1 (stereo not drawn) | 175
NCC1CC1CCC(=O)Nc1ccc(NC(=O)CCC2CC2CN)c2c1C(=O)c1ccccc1C2=O (stereo not drawn) | 208 to 210
CN(C)S(=O)(=O)n1cnc(-c2ccc(Cl)cc2Cl)c1 | 169 to 171
COCCN1CCN(c2ccc(C(=O)NC3(C(=O)NCC#N)CCCCC3)cc2)CC1 | 166 to 168
Cc1ccc([N+](=O)[O-])c2c1CC(C)O2 (stereo not drawn) | 69 to 71
Cc1oc(-c2ccccc2)nc1COc1ccc(COc2nn(Cc3ccccc3)cc2CC(=O)O)cc1 | 91 to 92
CCC(=O)NC(=O)C(CC)(OC(=O)CC)C(=O)NC(=O)CC | 90
CCOC(=O)c1c(CN(CC)CC)nc2sc3c(c2c1-c1ccc(Cl)cc1)CCNC3 | 104 to 106
CCCCCCCCCC1OC1C(=O)O (stereo not drawn) | 56 to 57
Cn1c2c(c3ccccc31)CCNC2 | > 250
Cn1ncc(C(=O)N2CCC2)c1C(=O)Nc1ccn2nc(N3CCOCC3)nc2c1 | 232 to 234
Cc1ccc(C#CCOCCn2cnc3c(N)nc4ccccc4c32)cc1C | 214 to 216
Cn1nc(-c2ccc(Cl)cc2)nc1-c1cccnc1 | 157 to 158
COC(=O)c1ccccc1Nc1cccc(C(C)O)c1Cl (stereo not drawn) | 94 to 95
CCc1cccc2[nH]c(C(=O)O)cc(=O)c12 | 272 to 273
Fc1ccc2c(c1)nc(C(F)(F)C(F)(F)F)n2C1CCNCC1 | 177 to 178
CCOC(=O)c1cc(C#N)c(C)nc1NC(C)CC (stereo not drawn) | 55 to 57
CCOC(=O)c1nc(-c2cccc([N+](=O)[O-])c2)[nH]c1-c1ccc(OC)cc1 | 208 to 210
Fc1ccc(-c2ncn(CCCOc3ccccc3)c2-c2ccncc2)cc1 | 95 to 96
COC(=O)NN=Cc1cnc2ccccc2n1 | 242 to 244
CC(Cc1cc(NC(=O)NCc2ccccc2)cc2ccoc12)NC(=O)OC(C)(C)C (stereo not drawn) | 167 to 168
CC1(C)CCC(C)(C)c2cc(C(=O)Nc3ccc(F)cc3)ccc21 | 163 to 165
Cc1cc(N2CCNC(=O)N2)cc(Cl)c1SCc1ccc(Cl)cc1 | 165 to 167

SMILES | melting point [°C]
CCCCOc1cc(C(=O)O)n(Cc2ccc(Cl)cc2Cl)n1 | 154 to 155
Cn1cc(-c2c(-c3ccccc3)nn3ccncc23)ccc1=O | 168 to 169
CCc1ccc(C=Nc2ccc(C#N)cc2)cc1 | 76.2 to 77
CCc1ccc(CC2CNC(=O)O2)cc1 (stereo not drawn) | 133 to 134
O=C(CCCCCCC(=O)Oc1cc(O)cc(O)c1)Oc1cc(O)cc(O)c1 | 185 to 188
CC(C)c1cc(C(C)C)c(CC(=O)NS(=O)(=O)Oc2c(C(C)C)cc(N(CCO)CCO)cc2C(C)C)c(C(C)C)c1 | 143 to 146
CNC(=O)C(CC(O)CO)N(CCN(CCN(CCN(CC(=O)O)C(CC(O)CO)C(=O)NC)CC(=O)O)CC(=O)O)CC(=O)O (stereo not drawn) | 86 to 92
O=C1OC(COc2ccccc2)CN1CCO (stereo not drawn) | 89 to 91
COc1cccc(-c2nccc3[nH]c(=O)c(-c4noc(C)n4)cc23)c1 | 281 to 282
Cc1cc([N+](=O)[O-])c(NCC(O)CO)c([N+](=O)[O-])c1 (stereo not drawn) | 118
Cc1nc(-c2cc3cccc(NS(=O)(=O)c4cccs4)c3[nH]2)sc1C | 210 to 211
COC(=O)Cc1ccc(CN2CCN(C(c3ccccc3)c3ccccn3)CC2)cc1 (stereo not drawn) | 122 to 123
S=C1Nc2cccnc2Nc2cscc21 | 255 to 260
NC(=O)OC(CC(=NNC(N)=S)c1ccccc1)c1ccccc1 (stereo not drawn) | 149 to 150
CNc1ncc(-c2ccc(C)cc2)c(-c2ccc(C)cc2)n1 | 160 to 162
NC(=O)COCCOCCN1CCC(=C(c2ccccc2)c2ccccc2)CC1 | 51 to 53
C=CCOC1CC2C3CCC4=CC(=O)CCC4(C)C3(F)C(O)CC2(C)C1(O)C(=O)CO (stereo not drawn) | 189 to 191
O=[N+]([O-])c1cc(Cl)c(Oc2ccccc2)cc1Oc1ccccc1 | 95
CC1(C)CC(Nc2nc(NC3CC(C)(C)N(O)C(C)(C)C3)nc(N(C3CC(C)(C)N(O)C(C)(C)C3)C3CC(C)(C)N(O)C(C)(C)C3)n2)CC(C)(C)N1O | 243 to 246
CC1=C2OC(C)(C)OC2CC(C)(C)C1=O (stereo not drawn) | 79 to 80
CC(=S)NCC1CN(c2ccc(C(=O)NN)c(F)c2)C(=O)O1 (stereo not drawn) | 177
CCOC(=O)c1cc2c(s1)CCC2=O | 54 to 55
O=C(NC1N=C(c2ccccc2F)c2ccccc2N(CC(=O)N2CC3CCC(CC3)C2)C1=O)c1cccc(O)c1 (racemic) | > 250

SMILES | melting point [°C]
Cc1cc(CNC(=O)C(=O)NCCc2ccccn2)c(C)o1 | 112 to 115
COc1ccc(-c2nc(S(=O)(=O)CC(F)(F)F)[nH]c2-c2ccc(OC)cc2)cc1 | 173 to 174
O=C(NCCc1c2n(c3ccc(O)nc13)CCCC2)c1ccco1 | 270
Cc1ccccc1C(Oc1cc(OCc2ccc3ncoc3c2)ccc1C#N)C(=O)O (racemic) | 172 to 178
COC1CN(c2ccc(NC(=O)OCc3ccccc3)cc2F)C1 | 95 to 96.5
NNc1ccc2c(=O)[nH]ccc2c1 | 270
Cc1nc2cc(C(O)(c3ccc(Cl)cc3)c3cncn3C)cc3c(-c4cccc(Cl)c4)cc(=O)n1c23 (stereo not drawn) | 170
O=c1c2ccc(Cl)cc2[nH]c2c(O)nn(Cc3ccccc3F)c(=O)c12 | 215
Cc1c(O)ccc2oc(-c3ccc(O)cc3)cc12 | 221 to 222
CS(=O)(=O)c1ccc(-c2cnn(-c3ccc(Oc4ccccc4)cc3)c(=O)c2-c2ccc(F)cc2)cc1 | 118 to 125
CC(=O)OCCC1=CCC2C3CCC4=CCC=CC4(C)C3C(O)CC12C (stereo not drawn) | 203 to 205
C[C@H](CCC=O)[C@H]1CC[C@@]2(C)C3=C(CC[C@]12C)[C@@]1(C)CCC(=O)C(C)(C)C1CC3 (stereo partly drawn) | 110 to 115
CSc1nc(NC2CC2)nc(Cl)c1C#N | 139 to 141
O=C(Nc1ccc2ccc(Cl)nc2n1)c1ccc(C(F)(F)F)cc1 | 236
CC(=O)C(=NO)c1ccc(OC[Si](C)(C)c2ccc(F)cc2)cc1 | 115 to 117
CCc1c2s[nH]c(=O)c2c(=O)n2ccc(Cl)cc12 | 222 to 223
CCOc1ccc(C2=NN(c3ccc(C4=NNC(=O)CC4C)cc3)C(=O)C3CC=CCC23)cc1OCC (stereo not drawn) | 164 to 165
Cc1nc2c(N)nc3ccccc3c2n1CCCOCCCc1ccccc1 | 145 to 146
N#CCc1ccc(Br)nc1 | 55.5 to 57.5
COc1ccc(CC(=O)c2c(O)c3cccnc3n(-c3ccccc3)c2=O)cc1 | 190 to 192
CC(C)(C)OC(=O)N[C@H](Cc1c[nH]c2ccccc12)C(N)=O | 142 to 143
COP(=O)(OC)C(O)=Cc1ccc2c(c1)C(=O)Cc1ccccc1O2 | 118

The remaining lines, values ahead:

melting point [°C] | SMILES
199 to 200 | COc1ccc(-c2nc(CNc3ccccc3)nc3cc(OC)c(OC)cc23)cc1OC
85 to 88 | O=C1CC[C@H](CC(c2ccc(S(=O)(=O)C3CC3)cc2)c2nc(F)c(C(=O)C3CCC3)[nH]2)C1 (stereo partly drawn)
215 | O=C(Cl)c1c(Br)c(Br)c([N+](=O)[O-])c2c1OCCO2
187 to 189 | O=S(=O)(Nc1cc(Br)nc(Br)c1)c1cccc(Cl)c1
120 to 125 | Cc1onc(-c2ccccc2)c1-c1nc(-c2c(F)cccc2Cl)nn1C
108 to 109 | OCCSc1nc2ccc(Cc3ccccc3)cc2[nH]1
247 to 250 | COc1cc2c(cc1/C=C/CCO)oc1cc(-c3ccccc3Cl)c3c(c12)C(=O)NC3=O
32 to 34 | CCOC(=O)CCC(C)c1ccc(O)cc1 (stereo not drawn)
199 to 201 | CCC(Oc1ccc(C(C)(C)CC)cc1C(C)(C)CC)C(=O)Nc1cc(O)c(NC(=O)c2ccccc2NS(C)(=O)=O)cc1Cl (stereo not drawn)
105 | CCC(CC)C(=O)OCOC(=O)C1=C(S[C@H]2CC[S@@](=O)C2)S[C@@H]2[C@@H]([C@@H](C)O)C(=O)N12
210 | O=S(=O)(Cl)c1ccc2oc(-c3ccncc3)cc2c1
54 to 57 | CCOC(=O)C(=O)Nc1nc(C(C)C)cs1
119 to 121 | COCCOc1ccc(/C=C/CO)c(Oc2ncc(C(F)(F)F)cc2Cl)c1
212 to 218 | CCOC(=O)c1ncc2[nH]c3ccc(C(=O)N4CCCCC4)cc3c2c1C
92 to 93 | CCOP(=O)(/C=C/c1cn(-c2ccccc2)nc1OCc1ccc(OCc2nc(-c3ccccc3)oc2C)c(OC)c1)OCC
195 to 197 | CC(Oc1cccc(C=Cc2ccc3ccc(Cl)cc3n2)c1)C(N)=O (single isomer, unassigned; (-))
100 to 101 | O=C(O)Cc1ccc(-n2cccn2)c(Br)c1
113 | CN(C)c1ccc(O)c2c1CC1CC3C(N(C)C)C(O)=C(C(N)=O)C(=O)C3(O)C(O)=C1C2=O (stereo not drawn)
152 to 165 | O=C1C2=NCCCN2c2cc(Cl)c([N+](=O)[O-])cc21
58 to 60 | C=C(CCCl)C(=O)c1ccc(OC)c(Cl)c1Cl
87 to 92 | CCN(CCCCc1coc2ccccc12)C[C@H]1COc2ccc3nc(C)ccc3c2O1
125 to 128 | CCOC(=O)C(=CNc1cccc(C(F)(F)F)n1)C(=O)OCC
130 to 132 | Fc1ccc([C@H]2CC[C@H](N3CCN(Cc4ccccc4)CC3)CC2)c2ccccc12
86 to 89 | CCCCOCCOc1ccc(-c2ccc(N3CCCCCC3)c(C=C(C)C(=O)OC)c2)cc1
89 to 90 | CC1(C)OC(c2ccc(S(C)(=O)=O)cc2Cl)=C(c2ccccc2)C1=O
200 to 201 | Oc1nc2ncnn2c(O)c1-c1c(F)cc(F)cc1F
97 to 98 | CS(=O)(=O)OCCCc1ccc(SCc2coc(/C=C/c3ccccc3)n2)cc1
64 to 65 | NNc1ncccc1-c1ccccn1
142 | CC1(C)OCCn2c1nc(C(=O)NCc1ccc(F)cc1P(=O)(O)OCc1ccccc1)c(OCc1ccccc1)c2=O
63 to 64 | CC1=C(C)CCCCCC1
